Measurements as given in US11149036B2, “3-(1H-pyrazol-4-yl)pyridine allosteric modulators of the M4 muscarinic acetylcholine receptor” (Merck Sharp & Dohme Corp., priority 2017, dated 2021).

Target: T1, human M4 muscarinic acetylcholine receptor (Homo sapiens, UniProt P08173)
T1 construct: expressed in transfected cells; host or cells: CHO-K1
T1 sequence (P08173 1-479): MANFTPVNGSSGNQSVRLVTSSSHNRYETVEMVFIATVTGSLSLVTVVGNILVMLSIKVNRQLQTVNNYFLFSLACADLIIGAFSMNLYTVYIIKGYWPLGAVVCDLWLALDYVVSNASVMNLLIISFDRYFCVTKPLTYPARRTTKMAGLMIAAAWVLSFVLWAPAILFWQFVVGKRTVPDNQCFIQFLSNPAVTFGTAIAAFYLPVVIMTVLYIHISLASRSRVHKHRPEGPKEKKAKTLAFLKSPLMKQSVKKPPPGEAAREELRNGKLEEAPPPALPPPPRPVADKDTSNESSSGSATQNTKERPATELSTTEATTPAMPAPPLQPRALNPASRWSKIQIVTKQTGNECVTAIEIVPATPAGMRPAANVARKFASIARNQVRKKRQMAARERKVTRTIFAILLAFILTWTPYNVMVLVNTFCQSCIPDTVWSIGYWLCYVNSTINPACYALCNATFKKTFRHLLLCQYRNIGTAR
Test: human FLIPR-based M4 PAM assay (CHO-K1 cells with human M4 receptor and Gaqi5, calcium dye fluorescence)
Type: cell-based
Conditions: inflection point (IP) of dose response curve, acetylcholine added at 20% of maximum response, read-out: M4 FLIPPR Hu IP
Method in brief: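 CHO-K1 cells stably expressing human M4 with chimeric Gaqi5, calcium-dye loaded ~1 h at 37° C; compound added at increasing concentrations 4 min before acetylcholine at an EC20 concentration (sometimes a further EC70 addition).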

SMILES | EC50 [nM]
FC(F)Oc1ccc(-c2cnn(CC3CCCC3)c2)c(-c2ccc3cccnc3c2)n1 [Example 166, 7-(3-(1-(cyclopentylmethyl)-1H-pyrazol-4-yl)-6-(difluoromethoxy)pyridin-2-yl)quinoline] | 26
c1cnc2cc(-c3nc(-n4cccn4)ccc3-c3cnn(CC4CCCC4)c3)ccc2c1 [Example 167, 7-(3-(1-(cyclopentylmethyl)-1H-pyrazol-4-yl)-6-(1H-pyrazol-1-yl)pyridin-2-yl)quinoline] | 98
C#Cc1ccc(-c2cnn(CC3CCCC3)c2)c(-c2ccc3cccnc3c2)n1 [Example 168, 7-(3-(1-(cyclopentylmethyl)-1H-pyrazol-4-yl)-6-ethynylpyridin-2-yl)quinoline] | 24
CC1(Cn2cc(-c3cc(F)c(C#N)nc3-c3ccn4cc(CF)nc4c3)cn2)CCCC1 [compound 136, 3-fluoro-6-(2-(fluoro-methyl)imidazo[1,2-a]pyridin-7-yl)-5-(1-((1-methylcyclopentyl)meth-yl)-1H-pyrazol-4-yl)picolinonitrile] | 19
Cn1cnc2cc(-c3nc(F)c(F)cc3-c3cnn(CC4(C)CCCC4)c3)cnc21 [compound 138, 6-(5,6-difluoro-3-(1-((1-methylcyclopentyl)methyl)-1H-pyrazol-4-yl)pyridin-2-yl)-3-methyl-3H-imidazo[4,5-b]pyridine] | 70
COCc1cn2ccc(-c3nc(C#N)ccc3-c3cnn(CC4(C)CCCC4)c3)cc2n1 [compound 156, 6-(2-(methoxymeth-yl)imidazo[1,2-a]pyridin-7-yl)-5-(1-((1-methylcyclopentyl)meth-yl)-1H-pyrazol-4-yl)picolinonitrile] | 29
